Test results: patent publication US6521736B2, “Amphiphilic polymeric materials” (priority 2000, dated 2003)
One block for each compound: values may come before it.

How the values were obtained:
[1] = Encapsulation of small molecules in PEG-1500-DMOI micelles, determined by UV spectroscopy; assay type: physicochemical; settings: for loading of complexed drug: complexed with PEG-1500-DMOI from 4:1 chloroform/methanol, taken up in water, UV
Protocol: Benzo[a]Pyrene (BP), a dye and potent carcinogen, was chosen as a hydrophobic model because BP encapsulation within aqueous micelles of the PEG-1500-DMOI polymer can be monitored by UV absorption spectroscopy. The amount of dye encapsulated in the micelles was readily determined by UV spectroscopy since an absorbance signal due to benzo[a]pyrene appeared in the 340-450 nm region only when the dye was solubilized within the aqueous micelle. Different concentrations of dye were prepared in dichloromethane and each was added to a constant amount of polymeric micelle solution (1 ml of 100 mg/ml). Polymer-dye complex films were cast on glass and dried under vacuum at room temperature overnight. The films were then removed and redissolved in water by sonication at 35° C. for 10 minutes, and purified by filtration from excess dye. A homogenous, stable solution of the dye was formed at concentrations of more than 0.25 wt %, indicating partitioning of the dye into the micellar core. The maximum loading capacity of the dye was 0.88% (w/w). […] A partition coefficient of 5×10^4 was determined, indicating strong partitioning.
In other experiments using this encapsulation method, PEG-1500-DMOI was complexed with either camptothecin or etoposide by combining the polymer and drug in a 4:1 chloroform/methanol mixture, then evaporating the resulting mixture overnight at room temperature under vacuum. The residue was treated with 5 ml water and filtered to remove any uncomplexed camptothecin. The solution was then examined with UV spectroscopy to determine the amount of complexed drug.

HIVLAI = settings: unencapsulated drug; cited from earlier work
mammalian cell cultures = assay: Cell growth, morphology and viability (XTT dye) in mammalian cell cultures; assay type: cell-based; settings: 1 mM extracellular unencapsulated drug
Protocol: […] At higher concentrations (e.g., 30 μM), loss of cell viability was seen. Host cell translation was monitored by the expression of inducible β-galactosidase activity; cell viability was monitored spectrophotometrically using XTT dye.

CD4+HeLa cells = settings: non-encapsulated drug; cited from earlier work
HIV-1 Rev = settings: CD4+HeLa cells, non-encapsulated drug; cited from earlier work
[2] = in aqueous PEG-1500-DMOI micelles

Compound: c1ccc2c(c1)cc1ccc3cccc4ccc2c1c34 [Benzo[a]Pyrene]
- partition coefficient [1]: 5×10^4
- dye concentration at which a homogenous, stable solution was formed [1, 2]: more than 0.25 wt %
- maximum loading capacity of the dye [1, 2]: 0.88 % (w/w)

Compound: NC[C@@H]1O[C@H](O[C@H]2[C@@H](O)[C@H](O[C@@H]3[C@@H](O)[C@H](N)C[C@H](N)[C@H]3O[C@H]3O[C@H](CN)[C@@H](O)[C@H](O)[C@H]3N)O[C@@H]2CO)[C@H](N)[C@@H](O)[C@@H]1O [unencapsulated neomycin B, neomycin B]
- concentration that inhibits HIV production, previously reported (HIVLAI): 2,500-5,000 μM

Compound: CC[C@@]1(O)C(=O)OCc2c1cc1n(c2=O)Cc2cc3ccccc3nc2-1 [camptothecin]
- loading of complexed drug [1]: 1.25 % (w/w)

Compound: C=C(NC(=O)C(=C)NC(=O)c1csc(C2=N[C@@H]3c4csc(n4)[C@H]4NC(=O)c5csc(n5)[C@H]([C@](C)(O)[C@@H](C)O)NC(=O)[C@H]5CSC(=N5)/C(=C/C)NC(=O)[C@H]([C@@H](C)O)NC(=O)c5csc(n5)[C@]3(CC2)NC(=O)[C@H](C)NC(=O)C(=C)NC(=O)[C@H](C)NC(=O)[C@H]([C@@H](C)CC)N[C@@H]2C=Cc3c([C@H](C)O)cc(nc3[C@H]2O)C(=O)O[C@@H]4C)n1)C(N)=O [unencapsulated thiostrepton, thiostrepton]
- effect on cell growth or cell morphology (mammalian cell cultures): no detectable effect

Compound: kazugamycin [non-encapsulated kazugamycin]
- concentration at which decreased cell proliferation and necrosis occur (CD4+HeLa cells): 35 µM
- concentration that blocks HIV-1 Rev function (HIV-1 Rev): 25 µM

- loading of complexed drug [1]: 3.1 % (w/w)
Compound: COc1cc([C@@H]2c3cc4c(cc3[C@@H](O[C@@H]3O[C@@H]5CO[C@@H](C)O[C@H]5[C@H](O)[C@H]3O)[C@H]3COC(=O)[C@H]23)OCO4)cc(OC)c1O [etoposide]
